The text below walks through data of US9932331B2, “Phenyl tetrahydroisoquinoline compound substituted with heteroaryl” (TAISHO PHARMACEUTICAL CO., LTD, priority 2014, dated 2018).

Structures can show the parent of a compound that is named as a salt.

For orientation: IC50 means the point on the concentration scale where inhibition reaches its midpoint.

In this assay the target is T1, human NHE3 (Homo sapiens, UniProt P48764).
T1 sequence (P48764 26-834): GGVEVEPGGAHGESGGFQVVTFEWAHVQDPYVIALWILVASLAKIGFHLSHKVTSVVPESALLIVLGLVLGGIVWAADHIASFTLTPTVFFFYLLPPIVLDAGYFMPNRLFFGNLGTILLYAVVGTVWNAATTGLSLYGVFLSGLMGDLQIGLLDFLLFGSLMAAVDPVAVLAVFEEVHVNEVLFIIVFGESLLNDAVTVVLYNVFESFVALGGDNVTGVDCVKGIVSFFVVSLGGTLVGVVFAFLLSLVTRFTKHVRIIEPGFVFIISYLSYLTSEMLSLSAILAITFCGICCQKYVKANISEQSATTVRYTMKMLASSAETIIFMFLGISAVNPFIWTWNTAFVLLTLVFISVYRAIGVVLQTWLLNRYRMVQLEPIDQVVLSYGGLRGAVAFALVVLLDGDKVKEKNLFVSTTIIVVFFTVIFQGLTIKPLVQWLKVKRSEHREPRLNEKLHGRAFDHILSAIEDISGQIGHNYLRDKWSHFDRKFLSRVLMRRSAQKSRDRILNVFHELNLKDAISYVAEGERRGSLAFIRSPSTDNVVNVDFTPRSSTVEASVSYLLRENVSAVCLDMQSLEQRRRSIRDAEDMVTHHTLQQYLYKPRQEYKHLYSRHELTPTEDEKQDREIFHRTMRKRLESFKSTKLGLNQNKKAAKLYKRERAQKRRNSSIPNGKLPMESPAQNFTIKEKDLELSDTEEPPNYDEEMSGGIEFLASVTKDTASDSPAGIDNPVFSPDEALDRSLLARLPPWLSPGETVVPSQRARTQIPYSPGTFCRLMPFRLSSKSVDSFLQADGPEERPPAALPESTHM
Briefly: NHE3 inhibition test (recovery of intracellular pH in cell line stably expressing human NHE3). In kind it is cell-based. The settings on record: OK cells deficient in endogenous NHE stably expressing human NHE3; BCECF fluorescence, initial rate of pH recovery; read-out: human NHE3 inhibitory activity IC50. How it is done:
(1) Preparation of Cell Line Deficient in Endogenous NHE
The cell line deficient in endogenous NHE was prepared according to the method of Jacques Pouyssegur et al. (Proc. Natl. Acad. Sci. USA. 1984, Vol. 81, 4833-4837) using opossum kidney (OK) cells (ATCC).
(2) Preparation of Expression Plasmid and Cell Line Stably Expressing Human NHE3
The expression plasmid was constructed by inserting a human NHE3 (SLC9A3, Accession No. NM_004174) cDNA sequence (GeneCopoeia, Inc.) into a pcDNA3.2/V5-DEST vector (Life Technologies Corp.).
The OK cells deficient in endogenous NHE were transfected with the constructed human NHE3 expression plasmid to prepare stably expressing cells. The transfection was carried out by electroporation using a Nucleofector 2b device (Lonza Group Ltd.). A stably expressing cell line was selected in medium supplemented with 500 μg/mL Geneticin (Life Technologies Corp.) and isolated.
NHE3 activity measurement method using cell: The activity was determined by using the NHE3-mediated recovery of intracellular pH occurring after intracellular acidification, as an index. The intracellular pH was measured by a partial modification of the pH-sensitive fluorescent indicator method reported by Tsien et al. (Proc. Natl. Acad. Sci. USA., 1984, 81, 7436-7440).
The cell line stably expressing human NHE3 was inoculated on a poly-D-lysine-coated 96-well plate (Greiner Bio-one) and cultured overnight. […] Then, Hank's balanced salt buffer solution containing 0.25 μM BCECF-AM (Dojindo Laboratories) was added to the cells, which were then incubated at 37° C. for 30 minutes. […] The cells thus incubated in the NH4Cl buffer solution were washed with NH4Cl-free buffer solution (133.8 mM choline chloride, […], 5 mM glucose, 4.7 mM KCl, 1.25 mM CaCl2, 1.25 mM MgCl2, 0.97 mM K2HPO4, 0.23 mM KH2PO4, pH 7.4) to decrease the intracellular pH. After the washing step, 70 μL of a test compound solution prepared with the NH4Cl-free buffer solution was added to the cells, and 70 iμL of sodium ion-containing buffer solution (133.8 mM NaCl, 10 mM HEPES, 5 mM glucose, 4.7 mM KCl, 1.25 mM CaCl2, 1.25 mM MgCl2, 0.97 mM Na2HPO4, 0.23 mM NaH2PO4, pH 7.4) was added thereto in a measurement system FDSS6000 (Hamamatsu Photonics K.K.) to start the recovery of pH. The recovery of intracellular pH was monitored using BCECF fluorescence (excitation wavelength: 480 nm, fluorescence wavelength: 520 to 560 nm), and the initial rate of the pH recovery was plotted. The recovery of pH without test compound was defined as the maximum recovery, and the test compound concentration necessary to inhibit 50% of the maximum recovery was calculated as an IC50 value.
On to “1,3-Bis[14-(4-{3-[(4S)-6,8-dichloro-2-methyl-1,2,3,4-tetrahydroisoquinolin-4-yl]phenyl}-1H-1,2,3-triazol-1-yl)-3,6,9,12-tetraoxatetradec-1-yl]urea hydrochloride [Example 7-44]”, for which the half-maximal inhibitory concentration (IC50) worked out at 7.6 nM.

Turning to `CN1Cc2c(Cl)cc(Cl)cc2[C@H](c2cccc(-c3ccncc3)c2)C1` [Example 1-1, (4S)-6,8-Dichloro-2-methyl-4-[3-(pyridin-4-yl)phenyl]-1,2,3,4-tetrahydroisoquinoline], the IC50 was 217 nM.

As for `CN1Cc2c(Cl)cc(Cl)cc2[C@H](c2cccc(-c3cccnc3)c2)C1` [Example 1-2, (4S)-6,8-Dichloro-2-methyl-4-[3-(pyridin-3-yl)phenyl]-1,2,3,4-tetrahydroisoquinoline trifluoroacetate], the half-inhibitory concentration (IC50) amounted to 217 nM.

As to `CN1Cc2c(Cl)cc(Cl)cc2[C@H](c2cccc(-c3ccn[nH]3)c2)C1` [Example 1-3, (4S)-6,8-Dichloro-2-methyl-4-[3-(1H-pyrazol-3-yl)phenyl]-1,2,3,4-tetrahydroisoquinoline], the concentration for half-maximal inhibition (IC50) is 392 nM.

For the compound `CN1Cc2c(Cl)cc(Cl)cc2[C@H](c2cccc(-c3cn[nH]c3)c2)C1` [Example 1-4, (4S)-6,8-dichloro-2-methyl-4-[3-(1H-pyrazol-4-yl)phenyl]-1,2,3,4-tetrahydroisoquinoline], the IC50 worked out at 257 nM.

Turning to `Cc1cc(-c2cccc([C@@H]3CN(C)Cc4c(Cl)cc(Cl)cc43)c2)cnn1` [Example 1-5, (4S)-6,8-Dichloro-2-methyl-4-[3-(6-methylpyridazin-4-yl)phenyl]-1,2,3,4-tetrahydroisoquinoline trifluoroacetate], the IC50 was 58.1 nM.

As for `CN1Cc2c(Cl)cc(Cl)cc2[C@H](c2cccc(-c3ccccn3)c2)C1` [Example 1-6, (4S)-6,8-Dichloro-2-methyl-4-[3-(pyridin-2-yl)phenyl]-1,2,3,4-tetrahydroisoquinoline trifluoroacetate], the half-inhibitory concentration (IC50) was found to be 373 nM.

Regarding `CN1Cc2c(Cl)cc(Cl)cc2[C@H](c2cccc(-c3ccnc(C#N)c3)c2)C1` [Example 1-7, 4-{3-[(4S)-6,8-Dichloro-2-methyl-1,2,3,4-tetrahydroisoquinolin-4-yl]phenyl}pyridine-2-carbonitrile], the IC50 is 626 nM.

Consider `CN1Cc2c(Cl)cc(Cl)cc2C(c2cccc(-c3cn(C)nn3)c2)C1` (stereo not drawn) [Example 1-8, 6,8-Dichloro-2-methyl-4-[3-(1-methyl-1H-1,2,3-triazol-4-yl)phenyl]-1,2,3,4-tetrahydroisoquinoline], for which the IC50 turned out to be 126 nM.

In the case of `CNc1cc(-c2cccc([C@@H]3CN(C)Cc4c(Cl)cc(Cl)cc43)c2)ccn1` [Example 1-9, 4-{3-[(4S)-6,8-Dichloro-2-methyl-1,2,3,4-tetrahydroisoquinolin-4-yl]phenyl}-N-methylpyridin-2-amine trifluoroacetate], the IC50 came out at 561 nM.

For the compound `CN1Cc2c(Cl)cc(Cl)cc2[C@H](c2cccc(-c3cncnc3)c2)C1` [Example 1-10, (4S)-6,8-Dichloro-2-methyl-4-[3-(pyrimidin-5-yl)phenyl]-1,2,3,4-tetrahydroisoquinoline trifluoroacetate], the half-maximal inhibitory concentration (IC50) worked out at 169 nM.

As for `COc1cc(-c2cccc([C@@H]3CN(C)Cc4c(Cl)cc(Cl)cc43)c2)ccn1` [Example 1-11, (4S)-6,8-Dichloro-4-[3-(2-methoxypyridin-4-yl)phenyl]-2-methyl-1,2,3,4-tetrahydroisoquinoline trifluoroacetate], the half-maximal inhibitory concentration (IC50) is 1600 nM.

Regarding `CCc1cc(-c2cccc([C@@H]3CN(C)Cc4c(Cl)cc(Cl)cc43)c2)ccn1` [Example 1-12, (4S)-6,8-Dichloro-4-[3-(2-ethylpyridin-4-yl)phenyl]-2-methyl-1,2,3,4-tetrahydroisoquinoline trifluoroacetate], the half-maximal inhibitory concentration (IC50) worked out at 650 nM.

Take `COc1cc(-c2cccc([C@@H]3CN(C)Cc4c(Cl)cc(Cl)cc43)c2)ncn1` [Example 1-13, (4S)-6,8-Dichloro-4-[3-(6-methoxypyrimidin-4-yl)phenyl]-2-methyl-1,2,3,4-tetrahydroisoquinoline trifluoroacetate]: the IC50 worked out at 271 nM.

As for `CN1Cc2c(Cl)cc(Cl)cc2[C@H](c2cccc(-c3cnccn3)c2)C1` [Example 1-14, (4S)-6,8-Dichloro-2-methyl-4-[3-(pyrazin-2-yl)phenyl]-1,2,3,4-tetrahydroisoquinoline trifluoroacetate], the IC50 was 173 nM.

`CNc1cc(-c2cccc([C@@H]3CN(C)Cc4c(Cl)cc(Cl)cc43)c2)ncn1` [Example 1-15, 6-{3-[(4S)-6,8-Dichloro-2-methyl-1,2,3,4-tetrahydroisoquinolin-4-yl]phenyl}-N-methylpyrimidin-4-amine trifluoroacetate]: the 50% inhibitory concentration (IC50) worked out at 117 nM.

For the compound `CN1Cc2c(Cl)cc(Cl)cc2[C@H](c2cccc(-c3ncccn3)c2)C1` [Example 1-16, (4S)-6,8-Dichloro-2-methyl-4-[3-(pyrimidin-2-yl)phenyl]-1,2,3,4-tetrahydroisoquinoline trifluoroacetate], the half-inhibitory concentration (IC50) stood at 184 nM.

For the compound `CN1Cc2c(Cl)cc(Cl)cc2[C@H](c2cccc(-c3ccnnc3)c2)C1` [Example 1-17, (4S)-6,8-Dichloro-2-methyl-4-[3-(pyridazin-4-yl)phenyl]-1,2,3,4-tetrahydroisoquinoline trifluoroacetate], the IC50 is 109 nM.

Regarding `CN1Cc2c(Cl)cc(Cl)cc2[C@H](c2cccc(-c3cn(C)cn3)c2)C1` [Example 1-18, (4S)-6,8-Dichloro-2-methyl-4-[3-(1-methyl-1H-imidazol-4-yl)phenyl]-1,2,3,4-tetrahydroisoquinoline], the IC50 came to 95.7 nM.

As to `Cc1cc(-c2cccc([C@@H]3CN(C)Cc4c(Cl)cc(Cl)cc43)c2)sn1` [Example 1-19, (4S)-6,8-Dichloro-2-methyl-4-[3-(3-methyl-1,2-thiazol-5-yl)phenyl]-1,2,3,4-tetrahydroisoquinoline hydrochloride], the IC50 was found to be 856 nM.

Take `CN1Cc2c(Cl)cc(Cl)cc2[C@H](c2cccc(-c3cccnn3)c2)C1` [Example 1-20, (4S)-6,8-Dichloro-2-methyl-4-[3-(pyridazin-3-yl)phenyl]-1,2,3,4-tetrahydroisoquinoline hydrochloride]: the concentration for half-maximal inhibition (IC50) came out at 208 nM.

Turning to `CN1Cc2c(Cl)cc(Cl)cc2[C@H](c2cccc(-c3ccc[nH]3)c2)C1` [Example 1-21, (4S)-6,8-Dichloro-2-methyl-4-[3-(1H-pyrrol-2-yl)phenyl]-1,2,3,4-tetrahydroisoquinoline], the IC50 worked out at 1170 nM.

Consider `CN1Cc2c(Cl)cc(Cl)cc2[C@H](c2cccc(-c3ncco3)c2)C1` [Example 1-22, (4S)-6,8-Dichloro-2-methyl-4-[3-(1,3-oxazol-2-yl)phenyl]-1,2,3,4-tetrahydroisoquinoline hydrochloride], for which the concentration for half-maximal inhibition (IC50) worked out at 306 nM.

As to `CN1Cc2c(Cl)cc(Cl)cc2[C@H](c2cccc(-c3ccco3)c2)C1` [Example 1-23, (4S)-6,8-Dichloro-4-[3-(furan-2-yl)phenyl]-2-methyl-1,2,3,4-tetrahydroisoquinoline], the IC50 is 3220 nM.
